Results taken from patent US11767310B2, “Nicotinamide RIPK1 inhibitors” (AbbVie Inc., priority 2021, dated 2023).
Where two headings read alike, the source gives them in different places.

Columns and labels:
Assay in all cases: Kinase binding screen
Conditions in all cases: read-out: Percent Control at 100 nM Compound Concentration
MAP4K5 = MAP4K5 (Homo sapiens (Human), UniProt Q9Y4K4)
PIP5K2B = PIP5K2B (Homo sapiens (Human), UniProt P78356)
[1] = molecular target: ABL1(E255K)-phosphorylated (Homo sapiens (Human), UniProt P00519, E255K)
CHEK1 = CHEK1 (Homo sapiens (Human), UniProt O14757)
PIK3C2G = PIK3C2G (Homo sapiens (Human), UniProt O75747)
CAMK4 = CAMK4 (Homo sapiens (Human), UniProt Q16566)
PHKG1 = PHKG1 (Homo sapiens (Human), UniProt Q16816)
MAST1 = MAST1 (Homo sapiens (Human), UniProt Q9Y2H9)
AURKA = AURKA (Homo sapiens (Human), UniProt O14965)
STK36 = STK36 (Homo sapiens (Human), UniProt Q9NRP7)
[2] = molecular target: TYK2(JH1domain-catalytic) (Homo sapiens (Human), UniProt P29597)
CSNK1A1L = CSNK1A1L (Homo sapiens (Human), UniProt Q8N752)
CSNK1D = CSNK1D (Homo sapiens (Human), UniProt P48730)
CIT = CIT (Homo sapiens (Human), UniProt O14578)
ROCK2 = ROCK2 (Homo sapiens (Human), UniProt O75116)
STK33 = STK33 (Homo sapiens (Human), UniProt Q9BYT3)
MST3 = MST3 (Homo sapiens (Human), UniProt Q9Y6E0)
TGFBR2 = TGFBR2 (Homo sapiens (Human), UniProt P37173)
SGK3 = SGK3 (Homo sapiens (Human), UniProt Q96BR1)
SRPK1 = SRPK1 (Homo sapiens (Human), UniProt Q96SB4)
[3] = molecular target: RSK2(Kin.Dom.2-C-terminal) (Homo sapiens (Human), UniProt P51812)
CLK4 = CLK4 (Homo sapiens (Human), UniProt Q9HAZ1)
GRK7 = GRK7 (Homo sapiens (Human), UniProt Q8WTQ7)
VPS34 = VPS34 (Homo sapiens (Human), UniProt Q8NEB9)
CAMK2B = CAMK2B (Homo sapiens (Human), UniProt Q13554)
EPHA2 = EPHA2 (Homo sapiens (Human), UniProt P29317)
MET(Y1235D) = MET(Y1235D) (Homo sapiens (Human), UniProt P08581, Y1235D)
PIK3CA(E545K) = PIK3CA(E545K) (Homo sapiens (Human), UniProt P42336, E545K)

Sequence of ROCK2 (O75116 whole entry): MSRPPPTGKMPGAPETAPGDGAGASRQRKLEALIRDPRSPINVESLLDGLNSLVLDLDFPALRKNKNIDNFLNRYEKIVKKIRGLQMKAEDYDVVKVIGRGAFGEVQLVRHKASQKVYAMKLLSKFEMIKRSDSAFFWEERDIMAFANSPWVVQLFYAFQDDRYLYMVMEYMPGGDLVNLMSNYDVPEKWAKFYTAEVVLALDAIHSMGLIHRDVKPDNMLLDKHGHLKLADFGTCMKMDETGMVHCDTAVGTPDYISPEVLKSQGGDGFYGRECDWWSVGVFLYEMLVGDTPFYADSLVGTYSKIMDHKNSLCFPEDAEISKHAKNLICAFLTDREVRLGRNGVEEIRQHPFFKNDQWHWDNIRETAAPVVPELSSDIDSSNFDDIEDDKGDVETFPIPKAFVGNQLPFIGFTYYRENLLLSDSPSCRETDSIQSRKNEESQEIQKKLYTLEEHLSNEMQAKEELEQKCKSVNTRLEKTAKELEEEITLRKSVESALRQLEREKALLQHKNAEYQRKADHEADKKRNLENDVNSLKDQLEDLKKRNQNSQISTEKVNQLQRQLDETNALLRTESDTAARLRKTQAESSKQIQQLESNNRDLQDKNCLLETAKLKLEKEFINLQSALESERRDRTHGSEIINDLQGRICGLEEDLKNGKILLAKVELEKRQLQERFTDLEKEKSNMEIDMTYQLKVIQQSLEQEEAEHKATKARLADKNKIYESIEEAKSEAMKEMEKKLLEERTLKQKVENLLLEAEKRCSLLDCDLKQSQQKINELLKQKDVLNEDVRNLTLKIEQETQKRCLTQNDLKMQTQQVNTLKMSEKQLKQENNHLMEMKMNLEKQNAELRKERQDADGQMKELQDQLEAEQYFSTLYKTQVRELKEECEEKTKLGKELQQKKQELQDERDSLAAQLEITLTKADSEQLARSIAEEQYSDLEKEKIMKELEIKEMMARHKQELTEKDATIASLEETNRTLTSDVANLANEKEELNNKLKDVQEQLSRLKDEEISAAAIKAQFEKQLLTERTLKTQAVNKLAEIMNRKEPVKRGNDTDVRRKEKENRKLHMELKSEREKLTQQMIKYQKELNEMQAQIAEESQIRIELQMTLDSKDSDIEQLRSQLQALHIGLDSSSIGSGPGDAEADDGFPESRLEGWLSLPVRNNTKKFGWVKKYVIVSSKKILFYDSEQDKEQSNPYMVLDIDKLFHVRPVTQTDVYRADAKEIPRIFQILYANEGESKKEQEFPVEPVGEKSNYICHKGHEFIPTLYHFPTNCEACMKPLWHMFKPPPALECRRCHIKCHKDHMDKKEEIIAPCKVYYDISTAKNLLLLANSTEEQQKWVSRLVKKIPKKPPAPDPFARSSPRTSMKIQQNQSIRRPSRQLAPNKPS
Sequence of RSK2(Kin.Dom.2-C-terminal) (P51812 422-679): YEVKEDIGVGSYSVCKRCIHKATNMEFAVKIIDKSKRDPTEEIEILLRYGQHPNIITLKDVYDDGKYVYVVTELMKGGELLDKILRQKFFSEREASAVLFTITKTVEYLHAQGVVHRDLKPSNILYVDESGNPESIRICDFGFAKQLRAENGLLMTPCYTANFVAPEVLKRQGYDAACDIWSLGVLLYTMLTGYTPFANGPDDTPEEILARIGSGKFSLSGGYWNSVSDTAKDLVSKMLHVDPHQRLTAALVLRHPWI
Sequence of STK36 (Q9NRP7 whole entry): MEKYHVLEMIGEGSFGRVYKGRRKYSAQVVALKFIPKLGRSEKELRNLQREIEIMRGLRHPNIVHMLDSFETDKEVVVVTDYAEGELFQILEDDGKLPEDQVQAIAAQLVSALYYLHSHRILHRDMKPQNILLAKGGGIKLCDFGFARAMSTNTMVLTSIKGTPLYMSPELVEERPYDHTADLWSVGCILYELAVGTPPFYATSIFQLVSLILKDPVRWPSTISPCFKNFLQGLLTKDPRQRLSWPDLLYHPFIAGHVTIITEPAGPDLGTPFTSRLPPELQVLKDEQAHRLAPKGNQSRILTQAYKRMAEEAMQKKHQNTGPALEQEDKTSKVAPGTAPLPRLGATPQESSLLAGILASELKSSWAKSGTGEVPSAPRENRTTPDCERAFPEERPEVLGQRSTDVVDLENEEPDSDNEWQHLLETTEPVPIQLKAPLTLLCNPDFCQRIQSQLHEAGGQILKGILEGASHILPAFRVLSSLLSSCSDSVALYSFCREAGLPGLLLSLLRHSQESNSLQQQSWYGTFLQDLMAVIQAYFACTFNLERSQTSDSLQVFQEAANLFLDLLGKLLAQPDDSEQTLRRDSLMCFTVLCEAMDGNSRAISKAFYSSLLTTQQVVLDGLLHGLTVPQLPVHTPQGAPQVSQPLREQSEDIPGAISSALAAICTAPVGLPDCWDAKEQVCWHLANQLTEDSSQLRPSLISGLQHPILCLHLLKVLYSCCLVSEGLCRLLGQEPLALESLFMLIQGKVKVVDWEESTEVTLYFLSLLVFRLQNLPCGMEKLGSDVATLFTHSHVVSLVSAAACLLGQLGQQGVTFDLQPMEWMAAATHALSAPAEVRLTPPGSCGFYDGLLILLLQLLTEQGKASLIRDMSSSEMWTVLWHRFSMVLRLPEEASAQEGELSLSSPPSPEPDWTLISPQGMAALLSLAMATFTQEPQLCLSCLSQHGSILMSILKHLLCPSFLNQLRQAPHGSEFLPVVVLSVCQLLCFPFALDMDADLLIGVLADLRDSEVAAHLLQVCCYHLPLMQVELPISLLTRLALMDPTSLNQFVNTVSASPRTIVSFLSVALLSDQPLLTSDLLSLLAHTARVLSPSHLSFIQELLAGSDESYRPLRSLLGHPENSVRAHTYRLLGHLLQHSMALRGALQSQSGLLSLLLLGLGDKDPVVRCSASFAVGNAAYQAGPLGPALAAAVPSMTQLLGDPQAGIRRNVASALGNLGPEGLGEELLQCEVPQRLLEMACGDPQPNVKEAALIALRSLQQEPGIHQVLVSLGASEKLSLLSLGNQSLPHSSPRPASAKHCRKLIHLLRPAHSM
Sequence of CSNK1D (P48730 whole entry): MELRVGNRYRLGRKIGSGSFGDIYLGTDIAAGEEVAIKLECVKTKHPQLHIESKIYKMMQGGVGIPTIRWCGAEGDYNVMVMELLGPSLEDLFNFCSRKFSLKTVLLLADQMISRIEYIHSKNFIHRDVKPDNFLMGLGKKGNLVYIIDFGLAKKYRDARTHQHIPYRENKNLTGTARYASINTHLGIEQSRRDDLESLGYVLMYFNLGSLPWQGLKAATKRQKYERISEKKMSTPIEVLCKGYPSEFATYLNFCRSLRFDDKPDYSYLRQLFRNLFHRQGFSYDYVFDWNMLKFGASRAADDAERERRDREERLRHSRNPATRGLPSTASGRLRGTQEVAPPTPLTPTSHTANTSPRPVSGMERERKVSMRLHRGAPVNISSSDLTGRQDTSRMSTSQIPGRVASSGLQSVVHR
Sequence of GRK7 (Q8WTQ7 whole entry): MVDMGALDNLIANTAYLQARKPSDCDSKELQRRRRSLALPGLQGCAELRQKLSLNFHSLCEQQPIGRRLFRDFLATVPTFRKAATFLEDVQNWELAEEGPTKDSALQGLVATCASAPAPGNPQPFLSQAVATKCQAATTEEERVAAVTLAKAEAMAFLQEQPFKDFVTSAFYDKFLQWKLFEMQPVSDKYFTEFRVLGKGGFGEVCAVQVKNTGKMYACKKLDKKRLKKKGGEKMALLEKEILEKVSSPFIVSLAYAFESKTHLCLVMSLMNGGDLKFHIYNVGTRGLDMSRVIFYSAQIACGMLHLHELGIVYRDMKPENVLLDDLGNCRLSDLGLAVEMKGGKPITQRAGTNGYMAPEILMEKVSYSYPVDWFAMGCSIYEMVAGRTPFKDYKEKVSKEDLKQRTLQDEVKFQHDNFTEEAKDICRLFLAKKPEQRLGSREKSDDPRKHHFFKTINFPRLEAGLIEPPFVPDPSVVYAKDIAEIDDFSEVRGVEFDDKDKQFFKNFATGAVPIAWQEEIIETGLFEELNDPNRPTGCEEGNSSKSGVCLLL
Sequence of PHKG1 (Q16816 whole entry): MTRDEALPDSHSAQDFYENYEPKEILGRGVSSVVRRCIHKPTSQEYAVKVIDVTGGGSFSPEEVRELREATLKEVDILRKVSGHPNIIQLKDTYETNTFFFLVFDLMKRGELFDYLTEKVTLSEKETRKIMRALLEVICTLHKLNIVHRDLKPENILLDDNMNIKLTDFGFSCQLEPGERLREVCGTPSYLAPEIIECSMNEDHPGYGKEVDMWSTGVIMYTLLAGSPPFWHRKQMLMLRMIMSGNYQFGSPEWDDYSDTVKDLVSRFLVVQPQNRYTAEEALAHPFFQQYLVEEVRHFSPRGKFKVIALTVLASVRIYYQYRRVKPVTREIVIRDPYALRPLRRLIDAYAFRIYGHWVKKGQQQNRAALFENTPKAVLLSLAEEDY
Sequence of PIP5K2B (P78356 whole entry): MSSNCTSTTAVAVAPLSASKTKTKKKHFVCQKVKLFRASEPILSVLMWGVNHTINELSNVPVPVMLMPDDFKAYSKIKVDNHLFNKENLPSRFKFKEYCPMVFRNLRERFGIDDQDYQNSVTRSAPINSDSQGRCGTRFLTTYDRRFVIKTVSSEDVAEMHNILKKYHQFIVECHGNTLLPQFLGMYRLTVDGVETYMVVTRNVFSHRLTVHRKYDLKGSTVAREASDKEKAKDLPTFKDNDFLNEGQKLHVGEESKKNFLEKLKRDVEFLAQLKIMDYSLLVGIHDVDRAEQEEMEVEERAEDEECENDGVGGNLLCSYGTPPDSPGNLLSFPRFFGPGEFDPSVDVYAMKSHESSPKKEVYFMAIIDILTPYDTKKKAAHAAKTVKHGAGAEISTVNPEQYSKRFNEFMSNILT
Sequence of TYK2(JH1domain-catalytic) (P29597 897-1176): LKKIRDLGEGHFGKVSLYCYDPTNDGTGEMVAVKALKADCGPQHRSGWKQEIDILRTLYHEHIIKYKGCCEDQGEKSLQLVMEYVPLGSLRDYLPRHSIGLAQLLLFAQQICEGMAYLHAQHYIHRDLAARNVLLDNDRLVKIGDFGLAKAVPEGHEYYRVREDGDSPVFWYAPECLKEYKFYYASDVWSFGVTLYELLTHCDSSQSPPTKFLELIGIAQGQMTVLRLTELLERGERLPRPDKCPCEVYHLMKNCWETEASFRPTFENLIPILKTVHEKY

SMILES: CN(C[C@H](Cc1ccccc1)OP(=O)(O)O)C(=O)c1cncc(C#Cc2cnn(C(F)F)c2)c1 [Example 19, (S)-1-(5-((1-(difluoromethyl)-1H-pyrazol-4-yl)ethynyl)-N-methylnicotinamido)-3-phenylpropan-2-yl dihydrogen phosphate]
- remaining activity at 0.1 µM (MAP4K5): 95%
- remaining activity at 0.1 µM (PIP5K2B): 95%
- remaining activity at 0.1 µM [1]: 91%
- remaining activity at 0.1 µM (CHEK1): 100%
- remaining activity at 0.1 µM (PIK3C2G): 78%
- remaining activity at 0.1 µM (CAMK4): 100%
- remaining activity at 0.1 µM (PHKG1): 100%
- remaining activity at 0.1 µM (MAST1): 97%
- remaining activity at 0.1 µM (AURKA): 100%
- remaining activity at 0.1 µM (STK36): 100%
- remaining activity at 0.1 µM [2]: 100%
- remaining activity at 0.1 µM (CSNK1A1L): 97%
- remaining activity at 0.1 µM (CSNK1D): 100%
- remaining activity at 0.1 µM (CIT): 95%
- remaining activity at 0.1 µM (ROCK2): 100%
- remaining activity at 0.1 µM (STK33): 100%
- remaining activity at 0.1 µM (MST3): 100%
- remaining activity at 0.1 µM (TGFBR2): 100%
- remaining activity at 0.1 µM (SGK3): 100%
- remaining activity at 0.1 µM (SRPK1): 100%
- remaining activity at 0.1 µM [3]: 100%
- remaining activity at 0.1 µM (CLK4): 100%
- remaining activity at 0.1 µM (GRK7): 100%
- remaining activity at 0.1 µM (VPS34): 90%
- remaining activity at 0.1 µM (CAMK2B): 92%
- remaining activity at 0.1 µM (EPHA2): 100%
- remaining activity at 0.1 µM (MET(Y1235D)): 99%
- remaining activity at 0.1 µM (PIK3CA(E545K)): 85%

SMILES: CN(C[C@@H](O)Cc1ccccc1)C(=O)c1cncc(C#Cc2cnn(C(F)F)c2)c1 [Example 2, (S)-5-((1-(difluoromethyl)-1H-pyrazol-4-yl)ethynyl)-N-(2-hydroxy-3-phenylpropyl)-N-methylnicotinamide]
- remaining activity at 0.1 µM (MAP4K5; MAP4K5): 87%
- remaining activity at 0.1 µM (PIP5K2B; PIP5K2B): 100%
- remaining activity at 0.1 µM ([1]; ABL1(E255K)-phosphorylated): 86%
- remaining activity at 0.1 µM (CHEK1; CHEK1): 100%
- remaining activity at 0.1 µM (PIK3C2G; PIK3C2G): 85%
- remaining activity at 0.1 µM (CAMK4; CAMK4): 100%
- remaining activity at 0.1 µM (PHKG1; PHKG1): 100%
- remaining activity at 0.1 µM (MAST1; MAST1): 100%
- remaining activity at 0.1 µM (AURKA; AURKA): 100%
- remaining activity at 0.1 µM (STK36; STK36): 100%
- remaining activity at 0.1 µM ([2]; TYK2(JH1domain-catalytic)): 100%
- remaining activity at 0.1 µM (CSNK1A1L; CSNK1A1L): 100%
- remaining activity at 0.1 µM (CSNK1D; CSNK1D): 100%
- remaining activity at 0.1 µM (CIT; CIT): 98%
- remaining activity at 0.1 µM (ROCK2; ROCK2): 100%
- remaining activity at 0.1 µM (STK33; STK33): 88%
- remaining activity at 0.1 µM (MST3; MST3): 100%
- remaining activity at 0.1 µM (TGFBR2; TGFBR2): 100%
- remaining activity at 0.1 µM (SGK3; SGK3): 100%
- remaining activity at 0.1 µM (SRPK1; SRPK1): 100%
- remaining activity at 0.1 µM ([3]; RSK2(Kin.Dom.2-C-terminal)): 100%
- remaining activity at 0.1 µM (CLK4; CLK4): 92%
- remaining activity at 0.1 µM (GRK7; GRK7): 100%
- remaining activity at 0.1 µM (VPS34; VPS34): 87%
- remaining activity at 0.1 µM (CAMK2B; CAMK2B): 100%
- remaining activity at 0.1 µM (EPHA2; EPHA2): 100%
- remaining activity at 0.1 µM (MET(Y1235D); MET(Y1235D)): 98%
- remaining activity at 0.1 µM (PIK3CA(E545K); PIK3CA(E545K)): 91%
